{"source": "patent US20150250786A1", "about": "“PYRIMIDINE HYDROXY AMIDE COMPOUNDS AS PROTEIN DEACETYLASE INHIBITORS AND METHODS OF USE THEREOF” (THE TRUSTEES OF THE UNIVERSITY OF PENNSYLVANIA, priority 2012, published 2015)", "key": {"[1]": {"system": "RN46A-B14 serotonergic cell line", "assay": "α-tubulin K40 acetylation in RN46A-B14 cells (Western blot)", "assay_type": "cell-based, rat", "conditions": "4 hours; TSA 0.6 μM, others 2.5 μM", "procedure": "In FIG. 3, it was observed that subchronic treatment, consisting of 5 treatments at 48, 28, 24, 4 and ½ hours before sacrifice, led to greater increase in tubulin acetylation than did chronic treatment of 1 injection/day for 21 days. For cell culture, RN46B cells were treated for with 0.25, 2.5 or 25 μM drug in DMSO for 1, 4 or 24 hours as indicated. Tukey post-hoc analysis: * P=0.01 to 0.05, ** P=0.001-0.01, ***P<0.001 when compared with vehicle treatment.\nResults are shown as percent change normalized to the vehicle treatment condition. The horizontal hard line depicts average and the dotted lines depict SEM of the vehicle treated wells. Representative Western blot images are presented. […] Representative Western blot images are presented. […] The drugs (5 mg/kg) were administered subchronically (at 24 h, 4 h and 30 min prior to sacrifice) to HDAC6 KO and WT littermates. The changes in tubulin acetylation were measured in tissue lysates from cortex (ctx), hippocampus (Hpc), dorsal Raphe nucleus (DRN) and cerebellum (cb). The tubulin acetylation levels in drug-treated mice are expressed as percent change of the vehicle-treated mice of the corresponding genotype. The horizontal lines depict the average tubulin acetylation±SEM in the vehicle treated mice. The representative Western blot images show the changes induced by each drug treatment in the hippocampus (left column) and dorsal raphe (right column) of WT and HDAC6 KO mice.\nIn contrast to the class I isoforms HDAC2 and 3, which are expressed highly and ubiquitously in the mouse brain, HDAC6 mRNA expression appears to be restricted to a small number of brain areas, with highest signal observed in DRN (FIG. 13f). […] No changes in total α-tubulin expression were detected (FIG. 14a)."}, "[2]": {"system": "histone H3 lysine 9 acetylation", "assay": "Histone H3K9 acetylation in vivo (Western blot, ChIP)", "parameters": "species or system mouse", "conditions": "in vivo treatment"}, "mice [3]": {"system": "mice", "assay": "Open-field test", "assay_type": "in vivo, mouse"}, "[4]": {"system": "NIH Swiss mice; C57BL/6J HDAC6 WT and KO mice", "assay": "Tail suspension test (TST)", "assay_type": "in vivo, mouse", "conditions": "NIH Swiss mice"}, "mice [5]": {"system": "mice", "assay": "Chronic social defeat (CSD) and social interaction test", "assay_type": "in vivo, mouse", "conditions": "after CSD; fluoxetine 20 mg/kg, compound 73 5 mg/kg, compound 101 50 mg/kg", "procedure": "Additionally, when combined with a dose of Citalopram with lower activity, these compounds seemed to have an additive effect (See FIG. 10). The dose of Citalopram chosen for this experiment was based on literature stating 2 mg/kg should be subactive, but this dose was found still showing an effect. Mice then underwent chronic social defeat stress, in which the mice are exposed to an aggressive resident mouse for 5 minutes daily for 10 days and are then tested on the 11th day in the social interaction test. Mice treated with vehicle for 20 total days, beginning 10 days before the defeat, show reduced time spent in the interaction zone when a target mouse is present when compared with control mice. […] The percent of mice found to be resilient, defined as spending more time in the interaction zone than the lowest control (i.e. ˜52 s), is higher in HDAC6 inhibitor groups. All behavior testing done using NIH Swiss mice, age 6-10 weeks. Tukey post-hoc analysis: * P=0.01 to 0.05, ** P=0.001-0.01, ***P<0.001 compared with vehicle treated mice.\nThe effects were observed 30 minutes after acute 50 mg/kg i.p. injection, but not for the lower dose (5 mg/kg). Combination of subactive doses of the HDAC6 selective inhibitors (5 mg/kg) and citalopram (0.5 mg/kg) produced robust potentiation of anti-immobility activity (n=8-29 per condition). […] No difference was observed between HDAC6 WT and KO when treated with the vehicle (n=6-15 per condition). FIG. 16c is a timeline showing treatment period, social defeat and social interaction (SI) testing.\nA pro-resilient phenotype in the mouse CSD paradigm after serotonin-selective KO of HDAC6 was previously reported (Espallergues et al, 2012). Whether a chronic pharmacological inhibition of HDAC6 can replicate that phenotype is studied. […] On day 21, 24 h after the last injection, the mice were tested in the social interaction test. […] Significant effects were also observed when data was evaluated in terms of proportion of mice reaching criterion for resiliency."}, "[6]": {"assay": "Pharmacokinetics and brain bio-distribution in mice", "assay_type": "in vivo, mouse", "conditions": "mouse; for Kp: brain, calculated over 2 hours", "procedure": "[…] Plasma samples were taken from all mice upon sacrifice. Brain samples were taken from the mice sacrificed at 5 and 15 minutes and 1 and 4 hours. The brain samples were homogenized in PBS and centrifuged at 14000 rpm for 5 minutes. The supernatant from the brain homogenate and the plasma samples were injected onto a LC/MS/MS for analysis. The compound level in the samples was determined by a standard curve in the appropriate matrix. Pharmacokinetic parameters were determined from the raw data by WinNonLin."}, "HDAC3": {"target": "HDAC3 (Homo sapiens, UniProt O15379)", "sequence (O15379 whole entry)": "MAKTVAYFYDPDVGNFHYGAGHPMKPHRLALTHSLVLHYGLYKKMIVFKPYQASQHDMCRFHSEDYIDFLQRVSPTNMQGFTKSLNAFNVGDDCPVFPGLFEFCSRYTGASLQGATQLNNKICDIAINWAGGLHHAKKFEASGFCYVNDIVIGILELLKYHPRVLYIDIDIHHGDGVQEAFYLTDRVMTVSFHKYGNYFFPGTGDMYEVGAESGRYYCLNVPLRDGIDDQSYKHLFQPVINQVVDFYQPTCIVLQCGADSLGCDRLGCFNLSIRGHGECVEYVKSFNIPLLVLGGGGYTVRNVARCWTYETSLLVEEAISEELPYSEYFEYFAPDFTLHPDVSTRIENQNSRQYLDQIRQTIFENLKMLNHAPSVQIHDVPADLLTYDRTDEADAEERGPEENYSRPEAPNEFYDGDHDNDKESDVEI", "sequence (Q9Y618 395-489 partner limits assumed)": "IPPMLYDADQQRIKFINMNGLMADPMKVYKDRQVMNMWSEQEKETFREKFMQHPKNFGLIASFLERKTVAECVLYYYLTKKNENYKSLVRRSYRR", "assay": "HDAC enzyme assay, HDAC3"}, "[7]": {"system": "all other class II HDAC isoforms", "assay": "HDAC inhibition, other class II isoforms", "conditions": "read-out: IC50 against all other class II HDAC isoforms"}}, "note": "Values joined by “and” are separate entries in the source; they are usually repeats but may differ in a detail not shown here. Equal values may be shown once. Read-outs that look alike come from different tables or passages of the source.", "data": [{"compound": "O=C(NO)c1cnc(NC2(c3cccc(F)c3)CCCCC2)nc1", "note": "[Compound 101, 2-((1-(3-fluorophenyl)cyclohexyl)amino)-N-hydroxypyrimidine-5-carboxamide]", "values": [{"measurement": "acetylated (lysine 40) fraction of α-tubulin", "setting": "[1]", "value": "increases"}, {"measurement": "acetylation of histone 3 at lysine 9 in Western blot", "setting": "[2]", "value": "did not significantly alter"}, {"measurement": "exploratory activity in novel open-field arena", "setting": "mice [3]; acute, compounds 73, 101 50 mg/kg, tubastatin A 10 mg/kg", "value": "hyperlocomotor effects"}, {"measurement": "distance in the center of the open field", "setting": "mice [3]; mouse, in vivo", "value": "419±73", "unit": "beam breaks"}, {"measurement": "open-field exploration in neural cell selective HDAC6 KO mice", "setting": "mice [3]; same doses (50 mg/kg)", "value": "did not significantly alter"}, {"measurement": "immobility in TST", "setting": "[4]; 5 mg/kg", "value": "No significant effect"}, {"measurement": "immobility in TST", "setting": "[4]; 50 mg/kg i.p., 30 minutes", "value": "Significant reductions"}, {"measurement": "percentage of resilient mice", "setting": "mice [5]", "value": 58, "unit": "%"}, {"measurement": "Kp", "setting": "[6]; C57BL/6J, intraperitoneal, read-out: AUCBrain/AUCplasma", "value": 1.26}, {"measurement": "concentration at 30 min", "setting": "[6]; C57BL/6J, plasma, intraperitoneal, 5 mg/kg, read-out: 30 min plasma concentration (ng/ml) - 5 mg/kg", "value": 496, "unit": "ng/mL"}, {"measurement": "concentration at 30 min", "setting": "[6]; C57BL/6J, plasma, intraperitoneal, 50 mg/kg, read-out: 30 min plasma concentration (ng/ml) - 50 mg/kg", "value": 1360, "unit": "ng/mL"}, {"measurement": "Cmax", "setting": "[6]; C57BL/6J, plasma, ip, 5 mg/kg, mice, acute i.p. dosing, read-out: Cmax", "value": 915, "unit": "ng/mL"}, {"measurement": "half-life", "setting": "[6]; C57BL/6J, plasma, ip, mice, acute i.p. dosing, read-out: T½ plasma (converted)", "value": 30, "unit": "min"}, {"measurement": "Kp", "setting": "[6]; intraperitoneal, read-out: AUCBrain/AUCplasma ratio", "value": "> 1"}, {"measurement": "concentration at 30 min", "setting": "[6]; plasma, intraperitoneal, acute 50 mg/kg injection, read-out: plasma level at t=30 minutes", "value": "1360 ng/mL and 4.1 µM"}, {"measurement": "concentration at 2 h", "setting": "[6]; plasma, intraperitoneal, read-out: plasma concentration after two hours", "value": "< 10", "unit": "ng/mL"}, {"measurement": "half-life", "setting": "[6]; plasma, intraperitoneal, read-out: plasmatic half-life", "value": 12, "unit": "min"}, {"measurement": "HDAC3 fold versus HDAC6 (in brackets)", "setting": "HDAC3", "value": "(1498.8x)"}, {"measurement": "HDAC3 fold versus HDAC6 (in brackets)", "setting": "HDAC3; Table 3", "value": 1496, "unit": "x"}, {"measurement": "IC50", "setting": "[7]", "value": "> 1000", "unit": "nM"}]}]}
